From patent publication EP0279079B1, “Purine derivatives as interleukin-1 inhibitors” (HOECHST MARION ROUSSEL, Inc., priority 1986, dated 1988) come the findings set out here.

Test [1] deals with polymorphonuclear neutrophil (PMN). The test is described as follows: PMN adherence on nylon fiber column. The class given is cell-based, human. The following applies: for percent adherence of PMN on the nylon column: three conditions: M199 "control", IL-1 80U/ml, "LPS KINE". As for the experimental part:
(§1) Purified human IL-1 was obtained from Cistron Technology, Pinebrook, New Jersey. As is known, the production of IL-1 from macrophages or circulating monocytes can be stimulated by the presence of bacterial lipopolysaccharides. Stites et al, Basic and Clinical Immunology, page 87 (1984). Accordingly, in vitro-generated IL-1 was obtained through the incubation of mononuclear leukocytes. Mononuclear leukocytes (3 x 10^6/ml) from ficoll-hypaque separation were incubated in medium 199 (M199) containing 10% fresh autologous serum with or without lipopolysaccharides 5ng/ml or with or without supernatant from C. albicans culture for 18 hours at 37° C (10% CO2) in LAB-TEK Flaskettes (Miles Inc., Naperville, Illinois). The suspension was centrifuged (150g X 10 minutes) and the supernatant filtered (0.45 micron 4) and frozen (-70° C).
Purified PMN (5 x 10^6/ml) were incubated 30 minutes at 37°C in M199, "NONE", LPS (1ng/ml), "LPS", mononuclear leukocyte conditioned medium, "CONT KINES", or in LPS stimulated mononuclear leukocyte conditioned medium, "LPS KINES". One ml was pipetted onto the top of a nylon fiber column and incubated at 37°C for 30 minutes. The PMN in the effluent samples were counted and the percent adherence of PMN on the column determined.
Two tenths ml of purified PMN (1 x 10^7/ml) was incubated 30 minutes at 37°C in M199, "control", or M199 containing IL-1 (80U/ml), "IL-1", or in LPS stimulated mononuclear leukocyte conditioned medium, "LPS KINE", with or without pentoxifylline (0.1 or 50 micrograms/ml).
Following incubation the samples were diluted to a final concentration of 5 x 10^6/ml with M199 (2% serum). One ml was placed onto the top of a nylon fiber column and incubated at 37°C for 30 minutes. The PMN in the effluent samples were counted and the percent adherence of PMN on the nylon column calculated.

Test [2] has the same test system. In words: PMN chemotaxis (directed migration) under agarose, chemoattractant FMLP. The test is classed as cell-based, human. The following applies: for directed migration inhibited by "LPS KINE": LPS stimulated mononuclear leukocyte conditioned M199 2% serum; for directed migration inhibited by interleukin-1: MEM containing IL-1 at 0 to 80 Units/ml. As for the experimental part: as §1
Neutrophils were placed in the center well of a triplet and the chemoattractant (FMLP 10^-7M) was placed in one outer well and M199 was placed in the opposite well. Following 2 hours incubation at 37° C the plates were fixed and stained and the zones of migration measured. The directed migration was the distance in mm that the leading front of PMN moved towards the chemoattractant.
Pure PMN (5 x 10^6/ml) were incubated for 30 minutes at 37°C with or without pentoxifylline (0.1 or 50 micrograms/ml) in M199 2% serum, "NO ADD", M199 2% serum containing LPS (1ng/ml), "LPS", mononuclear leukocyte conditioned M199 2% serum, "CONT KINE", or LPS stimulated mononuclear leukocyte conditioned M199 2% serum, "LPS KINE". The PMN were concentrated 10 fold prior to application in the under agarose chemotaxis assay.
Pure PMN (5 x 10^6/ml) were incubated for 30 minutes at 37°C with or without pentoxifylline (0.1 or 50 micrograms/ml) in M199 5% serum, "NO ADD", M199 5% serum containing supernatant from C. albicans culture, "C.ALB", mononuclear leukocyte conditioned M199 5% serum, "CONT KINE", or C. albicans stimulated mononuclear leukocyte conditioned M199 5% serum, "C. ALB KINE". The PMN were concentrated 10 fold prior to application in the under agarose chemotaxis assay.
Pure PMN (5 x 10^6/ml) were incubated for 30 minutes at 37°C with or without pentoxifylline (0.1 or 50 micrograms/ml) in minimum essential medium (MEM) or MEM containing IL-1 at 0 to 80 Units/ml. The PMN were concentrated 10 fold prior to application inthe under agarose chemotaxis assay.

Where [3] appears, read: pentoxifylline 0.1 micrograms/ml.
[4] abbreviates: pentoxifylline 50 micrograms/ml.

For `CC(=O)CCCCn1c(=O)c2c(ncn2C)n(C)c1=O` [Pentoxifylline, pentoxifylline], the “percent adherence of PMN on the nylon column” value in test [1] (setting [3]) and in test [1] (setting [4]) was “decreased” each time. Moreover, the “percent adherence of PMN on the column” value in test [1] (pentoxifylline 50 micrograms/ml, all four conditions: M199 "NONE", LPS 1ng/ml, "CONT KINES", "LPS KINES", 30 minutes at 37°C) is given as “decreased”. Further, the “directed migration inhibited by "LPS KINE"” value in test [2] (setting [3]) and in test [2] (setting [4]) was “increased” in each case. The “directed migration inhibited by interleukin-1” value in test [2] (setting [3]) and in test [2] (setting [4]) was “increased” in each case. Also, in test [2] (pentoxifylline 50 micrograms/ml, C. albicans stimulated mononuclear leukocyte conditioned M199 5% serum), the “directed migration inhibited by "C.ALB KINE"” value is “increased”. For the same compound, in test [2] (pentoxifylline 50 micrograms/ml, mononuclear leukocyte conditioned M199 5% serum), the “directed migration inhibited by "CONT KINE"” value was “increased”.
